# Columns and labels:
# GK-GKRP = target: T1, GK-GKRP (Homo sapiens, UniProt Q14397); test: biochemical; conditions: GK-GKRP IC50 (Binding)
# T1 sequence (Q14397 1-625): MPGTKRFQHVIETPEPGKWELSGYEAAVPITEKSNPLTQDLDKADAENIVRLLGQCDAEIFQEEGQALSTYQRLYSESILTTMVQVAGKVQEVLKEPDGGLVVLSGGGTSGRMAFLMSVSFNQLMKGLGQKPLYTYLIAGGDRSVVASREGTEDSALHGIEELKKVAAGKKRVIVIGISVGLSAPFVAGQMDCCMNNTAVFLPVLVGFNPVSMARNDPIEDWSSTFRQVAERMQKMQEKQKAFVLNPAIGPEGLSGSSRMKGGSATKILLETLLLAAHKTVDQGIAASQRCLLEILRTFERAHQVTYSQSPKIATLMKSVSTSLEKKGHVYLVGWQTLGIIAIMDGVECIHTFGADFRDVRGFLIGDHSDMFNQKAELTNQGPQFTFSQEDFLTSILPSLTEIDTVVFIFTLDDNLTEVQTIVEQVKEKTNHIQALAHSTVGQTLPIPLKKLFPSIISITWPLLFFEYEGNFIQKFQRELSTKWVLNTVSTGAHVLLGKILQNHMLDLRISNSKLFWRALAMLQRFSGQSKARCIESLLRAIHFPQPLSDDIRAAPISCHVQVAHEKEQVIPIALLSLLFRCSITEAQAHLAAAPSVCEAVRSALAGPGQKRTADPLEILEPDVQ
# [1] = target: T2, GKRP (Glucokinase Regulatory Protein) with human His-hepatic GK (Homo sapiens, UniProt Q14397); test: GKRP LC MS/MS Biochemical Assay; conditions: 13C-glucose-6-phosphate formation, 1 μM GKRP (10×), 30 nM GK (5×)
# T2 sequence (Q14397 1-625): T1 sequence (Q14397 1-625)
# Summary of the method: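 Human His-hepatic GK (working stock 30 nM, 5×) with GKRP in 50 mM Tris pH 7.5, 4 mM MgCl2, 6% DMSO, DTT, BSA and Brij-35. After a 30 min preincubation, GK was added and the reaction ran 30 min at room temperature. Stopped with acetonitrile; 13C-glucose-6-phosphate formed from 13C-glucose quantified by LC MS/MS.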
# [2] = target: T2, GKRP (Glucokinase Regulatory Protein) with human His-hepatic GK; test: GKRP NADPH Coupled Assay; format: biochemical; conditions: indirect measure of glucose-6-phosphate, fluorescence, 1 μM GKRP (10×), 20 nM GK (5×)
# Summary of the method: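 Human His-hepatic GK (5× stock 20 nM) in 50 mM Tris pH 7.5, 4 mM MgCl2, 6% DMSO, 0.1% BSA, 0.01% Brij-35, with GKRP and compound preincubated 30 min, then reaction 1 h at RT. Glucose-6-phosphate read indirectly via G6P dehydrogenase-coupled NADPH formation from β-NADP (2× stop/detection reagent, pH 9.2, 5 min).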
SMILES,IC50 (GK-GKRP),also measured
"CC#CC1CN(S(=O)(=O)c2ccc(N)nc2)CCN1c1ncc(C(C)(O)C(F)(F)F)cn1 (single isomer, unassigned) [Example 251 First Eluting Peak from Set Two, 2-(2-(4-((6-amino-3-pyridinyl)sulfonyl)-2-(1-propyn-1-yl)-1-piperazinyl)-5-pyrimidinyl)-1,1,1-trifluoro-2-propanol]",11300 nM,–
"CC#CC1CN(S(=O)(=O)c2ccc(N)nc2)CCN1c1ncc(C(C)(O)C(F)(F)F)cn1 (single isomer, unassigned) [Example 251 First Eluting Peak from Set One, 2-(2-(4-((6-amino-3-pyridinyl)sulfonyl)-2-(1-propyn-1-yl)-1-piperazinyl)-5-pyrimidinyl)-1,1,1-trifluoro-2-propanol]",15 nM,–
"CC(O)CC1CN(S(=O)(=O)c2ccc(N)nc2)CCN1c1ncc(C(O)(C(F)(F)F)C(F)(F)F)cn1 (centres unmarked) [Example 244, 2-(2-(4-((6-amino-3-pyridinyl)sulfonyl)-2-(2-hydroxypropyl)-1-piperazinyl)-5-pyrimidinyl)-1,1,1,3,3,3-hexafluoro-2-propanol]",743 nM,–
"CC#CC1CN(S(=O)(=O)c2nnc(N)s2)CCN1c1ccc(C(O)(C(F)(F)F)C(F)(F)F)cc1 (racemic) [Example 249, 2-(4-(4-((5-amino-1,3,4-thiadiazol-2-yl)sulfonyl)-2-(1-propyn-1-yl)-1-piperazinyl)phenyl)-1,1,1,3,3,3-hexafluoro-2-propanol]",112 nM,–
"CC(c1ccccc1)N(C[C@H]1CN(S(=O)(=O)c2cccs2)CCN1c1ccc(C(C)(O)C(F)(F)F)cc1)S(C)(=O)=O (mixture of isomers) [Example 252, N-(1-phenylethyl)-N-(((2R)-4-(2-thiophenylsulfonyl)-1-(4-(2,2,2-trifluoro-1-hydroxy-1-methylethyl)phenyl)-2-piperazinyl)methyl)methanesulfonamide]",671 nM,–
"CC(O)(c1cnc(-c2ccc(S(=O)(=O)c3ccc(N)nc3)cc2)nc1)C(F)(F)F (racemic) [Example 265, 2-(2-(4-((6-amino-3-pyridinyl)sulfonyl)phenyl)-5-pyrimidinyl)-1,1,1-trifluoro-2-propanol]",229 nM,–
"CC(O)(c1ccc(N2CCN(S(=O)(=O)c3cccs3)CC2CN2CCOCC2CO)cc1)C(F)(F)F (mixture of isomers) [Example 48, 1,1,1-trifluoro-2-(4-(2-((3-(hydroxymethyl)-4-morpholinyl)methyl)-4-(2-thiophenylsulfonyl)-1-piperazinyl)phenyl)-2-propanol]",–,EC50 ([1]; GK-GKRP EC50 (LC MS/MS)): 606 nM; EC50 ([2]; GK-GKRP EC50 (NADPH-coupled)): 389 nM
"CC(C)(CO)NCC1CN(S(=O)(=O)c2cccs2)CCN1c1ccc(C(C)(O)C(F)(F)F)cc1 (mixture of isomers) [Example 54, 2-methyl-2-(((4-(2-thiophenylsulfonyl)-1-(4-(2,2,2-trifluoro-1-hydroxy-1-methylethyl)phenyl)-2-piperazinyl)methyl)amino)-1-propanol]",–,EC50 ([1]; read-out: GK-GKRP EC50 (LC MS/MS)): 2780 nM; EC50 ([2]; read-out: GK-GKRP EC50 (NADPH-coupled)): 2970 nM
"CC(O)(c1ccc(-c2ccc(S(=O)(=O)c3ccccc3)c(Cl)c2)nc1)C(F)(F)F (racemic) [Example 18, 2-(6-(3-chloro-4-(phenylsulfonyl)phenyl)-3-pyridinyl)-1,1,1-trifluoro-2-propanol]",–,EC50 ([1]; GK-GKRP EC50 (LC MS/MS)): 3570 nM; EC50 ([2]; GK-GKRP EC50 (NADPH-coupled)): 3750 nM
"CC(O)(c1ccc(N2CCN(S(=O)(=O)c3cccs3)CC2Cc2ccccc2F)cc1)C(F)(F)F (mixture of isomers) [Example 38, 1,1,1-trifluoro-2-(4-(2-(2-fluorobenzyl)-4-(2-thiophenylsulfonyl)-1-piperazinyl)phenyl)-2-propanol]",–,EC50 ([1]; GK-GKRP EC50 (LC MS/MS)): 850 nM; EC50 ([2]; GK-GKRP EC50 (NADPH-coupled)): 515 nM
"O=S(=O)(c1cccs1)N1CCN(c2ccc(C(O)(C(F)(F)F)C(F)(F)F)cc2-c2ccc(O)cc2)CC1 [Example 74, 2′-(4-(2-thiophenylsulfonyl)-1-piperazinyl)-5′-(2,2,2-trifluoro-1-hydroxy-1-(trifluoromethyl)ethyl)-4-biphenylol]",–,EC50 ([1]; GK-GKRP EC50 (LC MS/MS)): 1370 nM; EC50 ([2]; GK-GKRP EC50 (NADPH-coupled)): 1470 nM
"C[C@H]1CN(S(=O)(=O)c2nccs2)CCN1c1ccc(C(C)(O)C(F)(F)F)cc1 (single isomer, unassigned) [Example 34 Peak #2]",–,EC50 ([1]; GK-GKRP EC50 (LC MS/MS)): 1920 nM; EC50 ([2]; GK-GKRP EC50 (NADPH-coupled)): 1940 nM
"O=S(=O)(c1cccs1)N1CCN(c2ccc(C(O)(C(F)(F)F)C(F)(F)F)cc2-c2cccnc2)CC1 [Example 72, 1,1,1,3,3,3-hexafluoro-2-(3-(3-pyridinyl)-4-(4-(2-thiophenylsulfonyl)-1-piperazinyl)phenyl)-2-propanol]",–,EC50 ([1]; GK-GKRP EC50 (LC MS/MS)): 783 nM; EC50 ([2]; GK-GKRP EC50 (NADPH-coupled)): 775 nM

# Further lines, with some results ahead:
IC50 (GK-GKRP),SMILES,also measured
21 nM,"CC#C[C@H]1CN(S(=O)(=O)c2ccccc2)CCN1c1ccc(C(O)(C(F)(F)F)C(F)(F)F)cc1 [Example 247, 1,1,1,3,3,3-hexafluoro-2-(4-((2S)-4-(phenylsulfonyl)-2-(1-propyn-1-yl)-1-piperazinyl)phenyl)-2-propanol]",–
15 nM,"CC#CC1CN(S(=O)(=O)c2cnc(N)c(F)c2)CCN1c1ccc(C(O)(C(F)(F)F)C(F)(F)F)cc1 (racemic) [Example 250, 2-(4-(4-((6-amino-5-fluoro-3-pyridinyl)sulfonyl)-2-(1-propyn-1-yl)-1-piperazinyl)phenyl)-1,1,1,3,3,3-hexafluoro-2-propanol]",–
217 nM,"C[C@H]1COCC(=O)N1C[C@H]1CN(S(=O)(=O)c2cccs2)CCN1c1ccc([C@](C)(O)C(F)(F)F)cc1 [Example 272, (S)-5-methyl-4-(((S)-4-(tiophen-2-ylsulfonyl)-1-(4-((S)-1,1,1-trifluoro-2-hydroxypropan-2-yl)phenyl)piperazin-2-yl)methyl)morpholin-3-one]",–
49 nM,"Nc1ccc(S(=O)(=O)N2CCN(c3ccc(C(O)(C(F)(F)F)C(F)(F)F)cc3)[C@@H](CS(=O)(=O)c3ccccc3)C2)cn1 [Example 273, 2-(4-((2R)-4-((6-amino-3-pyridinyl)sulfonyl)-2-((phenylsulfonyl)methyl)-1-piperazinyl)phenyl)-1,1,1,3,3,3-hexafluoro-2-propanol]",–
23 nM,"CC(=O)N(C[C@H]1CN(S(=O)(=O)c2cccs2)CCN1c1ccc(C(C)(O)C(F)(F)F)cc1)c1ccc(F)cc1 (mixture of isomers) [Example 256, N-(4-fluorophenyl)-N-(((2S)-4-(2-thiophenylsulfonyl)-1-(4-(2,2,2-trifluoro-1-hydroxy-1-methylethyl)phenyl)-2-piperazinyl)methyl)acetamide]",–
834 nM,"CC#Cc1cc(C(O)(C(F)(F)F)C(F)(F)F)ccc1N1CCN(S(=O)(=O)c2cccs2)CC1 [Example 262, 1,1,1,3,3,3-hexafluoro-2-(3-(1-propyn-1-yl)-4-(4-(2-thiophenylsulfonyl)-1-piperazinyl)phenyl)-2-propanol]",–
463 nM,"CC(O)(c1ccc(N2CCN(S(=O)(=O)c3cccs3)C[C@@H]2CN2CCNC(C(F)(F)F)C2)cc1)C(F)(F)F (single isomer, unassigned) [Example 270 Peak 2]",–
15 nM,CC#CC1CN(S(=O)(=O)c2nccs2)CCN1c1ccc(C(O)(C(F)(F)F)C(F)(F)F)cc1 (centres unmarked) [Example 248],–
2 nM,"CC(O)(c1ccc(N2CCN(S(=O)(=O)c3cccs3)C[C@@H]2CN(c2ccc(F)cc2)S(C)(=O)=O)cc1)C(F)(F)F (mixture of isomers) [Example 255, N-(4-fluorophenyl)-N-(((2R)-4-(2-thiophenylsulfonyl)-1-(4-(2,2,2-trifluoro-1-hydroxy-1-methylethyl)phenyl)-2-piperazinyl)methyl)methanesulfonamide]",–

# Source: patent US8431563B2 (priority 2010, dated 2013)
